According to patent publication US11325889B2, “Substituted 3-((3-aminophenyl)amino)piperidine-2,6-dione compounds, compositions thereof, and methods of treatment therewith” (Celgene Corporation, priority 2018, dated 2022):
Like-named read-outs stand apart in the source and are kept apart here.

Molecular target: T1, AR protein in VCaP cells (Homo sapiens, UniProt P10275)
T1 construct: endogenous in cells; host or cells: VCaP cells
T1 sequence (P10275 1-920): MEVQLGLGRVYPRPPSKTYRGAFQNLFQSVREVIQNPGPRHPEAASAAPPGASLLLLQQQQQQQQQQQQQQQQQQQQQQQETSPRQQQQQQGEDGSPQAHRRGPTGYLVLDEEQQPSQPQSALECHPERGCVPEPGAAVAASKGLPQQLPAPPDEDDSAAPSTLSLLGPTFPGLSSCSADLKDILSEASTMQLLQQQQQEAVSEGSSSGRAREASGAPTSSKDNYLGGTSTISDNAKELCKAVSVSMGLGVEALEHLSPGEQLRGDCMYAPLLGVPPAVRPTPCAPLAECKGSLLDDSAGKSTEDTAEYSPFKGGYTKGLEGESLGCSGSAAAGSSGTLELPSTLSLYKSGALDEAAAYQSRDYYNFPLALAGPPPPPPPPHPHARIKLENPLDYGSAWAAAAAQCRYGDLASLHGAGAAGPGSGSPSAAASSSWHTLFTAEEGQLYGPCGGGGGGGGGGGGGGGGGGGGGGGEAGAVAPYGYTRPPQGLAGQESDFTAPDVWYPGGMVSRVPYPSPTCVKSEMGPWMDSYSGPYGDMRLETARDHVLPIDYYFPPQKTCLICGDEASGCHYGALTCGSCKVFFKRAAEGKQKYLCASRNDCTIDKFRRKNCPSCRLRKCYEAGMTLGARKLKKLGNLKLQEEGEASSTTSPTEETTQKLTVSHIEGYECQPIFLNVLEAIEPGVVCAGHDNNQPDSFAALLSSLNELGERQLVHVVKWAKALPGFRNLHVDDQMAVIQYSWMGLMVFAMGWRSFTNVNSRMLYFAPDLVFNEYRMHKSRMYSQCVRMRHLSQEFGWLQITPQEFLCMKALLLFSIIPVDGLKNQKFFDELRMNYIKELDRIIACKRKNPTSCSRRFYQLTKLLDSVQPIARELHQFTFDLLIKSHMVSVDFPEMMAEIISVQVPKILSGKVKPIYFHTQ
Experiment: VCAP AR Degradation Assay (AR ELISA, 24 h)
Assay type: cell-based
Conditions: for Y (lowest measured AR level normalized to DMSO control): AR degradation efficiency; for DC50: concentration of compound when AR level = 50% of DMSO control
Method: VCAP AR Degradation Assay.
Test compounds were pre-dispensed into a Corning CellBind 96-well clear bottom plate (Cat #3300) using an acoustic dispenser to make a 10-point concentration series at 1:3 dilution for each compound. The final top concentration of each compound was […]. DMSO at a final concentration of 0.1% was used as a control. VCaP cells cultured in DMEM with 8% fetal bovine serum (FBS) were seeded at 50K cells per well in a 200 μL volume into the compound plate and incubated at 37° C. in a CO2 incubator for 24 h. The medium was carefully removed from the cells and the plate was placed on ice. One hundred […] of ice-cold 1× cell lysis buffer from Cell Signaling Technologies (Cat #9803) was added to each well of the cells and the plate was incubated at 4° C. on a shaker for 1 h. Fifteen […] of cell lysate was used for AR ELISA detection using a PathScan Total Sandwich AR ELISA kit (Cell Signaling Technology, Cat #12580). AR levels in compound-treated wells were normalized to that of DMSO control and expressed as percent of control (PoC) (y). A Four Parameter Logistic Model (Sigmoidal Dose-Response Model) was used to determine the compound's DC50, and EC50, using the following equation: y=(A+((B−A)/(1+((C/x)^D)))) • A=YMin (lowest AR level normalized to DMSO control in response to compound • treatment, as determined by curve fit) • B=YMax (maximum AR level as determined by curve fit) • C=EC50 • D=Hill Slope • x=compound concentration • EC50=the concentration of compound when y=(YMax−YMin)/2 • DC50=the concentration of the compound when y=50% of DMSO control (50% AR degradation) • y=AR protein level normalized to DMSO control
The lowest measured AR level normalized to DMSO control in response to compound treatment, termed Y value, was used to characterize the compound-mediated AR degradation efficiency.

Row | Structure (SMILES) | Y (lowest measured AR level normalized to DMSO control) | DC50 (read-out: DC50) [nM] | DC50 [nM]
1 | CCc1cc(N2C(=S)N(c3cnc(C#N)c(C(F)(F)F)c3)C(=O)C23CCC3)ccc1OCCC1CCN(CC(=O)Nc2cccc(NC3CCC(=O)NC3=O)c2)C(C)(C)C1 (single isomer, unassigned) [Cmpd 54] | * (0<Y<=25%) | < 100 | –
2 | CCc1cc(N2C(=S)N(c3cnc(C#N)c(C(F)(F)F)c3)C(=O)C23CCC3)ccc1OCC[C@H]1C[C@H]2CC[C@@H](C1)N2CC(=O)Nc1cccc(NC2CCC(=O)NC2=O)c1 (single isomer, unassigned) [Cmpd 67] | ** (25%<Y<=35%) | – | < 100
3 | CC1(C)C(=O)N(c2ccc(C#N)c(C(F)(F)F)c2)C(=S)N1c1ccc(OC2CCN(CC(=O)Nc3cccc(NC4CCC(=O)NC4=O)c3)CC2)c(F)c1 (stereo not shown) [Cmpd 1, 2-(4-(4-(3-(4-cyano-3-(trifluoromethyl)phenyl)-5,5-dimethyl-4-oxo-2-thioxoimidazolidin-1-yl)-2-fluorophenoxy)piperidin-1-yl)-N-(3-(2,6-dioxopiperidin-3-ylamino)phenyl)acetamide] | ** (25%<Y<=35%) | < 100 | –
4 | CC1(C)C(=O)N(c2ccc(C#N)c(C(F)(F)F)c2)C(=S)N1c1ccc(OCC2CCN(CC(=O)Nc3cccc(NC4CCC(=O)NC4=O)c3)CC2)c(F)c1 (stereo not shown) [Cmpd 2, 2-(4-((4-(3-(4-cyano-3-(trifluoromethyl)phenyl)-5,5-dimethyl-4-oxo-2-thioxoimidazolidin-1-yl)-2-fluorophenoxy)methyl)piperidin-1-yl)-N-(3-(2,6-dioxopiperidin-3-ylamino)phenyl)acetamide] | ** (25%<Y<=35%) | 100 to 500 | –
5 | CC1(C)C(=O)N(c2ccc(C#N)c(C(F)(F)F)c2)C(=S)N1c1ccc(OCCC2CCN(CC(=O)Nc3cccc(NC4CCC(=O)NC4=O)c3)CC2)c(F)c1 (stereo not shown) [Cmpd 3, 2-(4-(2-(4-(3-(4-cyano-3-(trifluoromethyl)phenyl)-5,5-dimethyl-4-oxo-2-thioxoimidazolidin-1-yl)-2-fluorophenoxy)ethyl)piperidin-1-yl)-N-(3-(2,6-dioxopiperidin-3-ylamino)phenyl)acetamide] | ** (25%<Y<=35%) | 100 to 500 | –
6 | CC1(C)C(=O)N(c2ccc(C#N)c(C(F)(F)F)c2)C(=S)N1c1ccc(OCCC2CCN(CC(=O)Nc3cccc(NC4CCC(=O)NC4=O)c3)CC2)c(Cl)c1 (stereo not shown) [Cmpd 4, 2-(4-(2-(2-chloro-4-(3-(4-cyano-3-(trifluoromethyl)phenyl)-5,5-dimethyl-4-oxo-2-thioxoimidazolidin-1-yl)phenoxy)ethyl)piperidin-1-yl)-N-(3-(2,6-dioxopiperidin-3-ylamino)phenyl)acetamide] | ** (25%<Y<=35%) | 100 to 500 | –
7 | CC1(C)C(=O)N(c2cnc(C#N)c(C(F)(F)F)c2)C(=S)N1c1ccc(OCCC2CCN(CC(=O)Nc3cccc(NC4CCC(=O)NC4=O)c3)CC2)c(Cl)c1 (stereo not shown) [Cmpd 5, 2-(4-(2-(2-chloro-4-(3-(6-cyano-5-(trifluoromethyl)pyridin-3-yl)-5,5-dimethyl-4-oxo-2-thioxoimidazolidin-1-yl)phenoxy)ethyl)piperidin-1-yl)-N-(3-(2,6-dioxopiperidin-3-ylamino)phenyl)acetamide] | * (0<Y<=25%) | < 100 | –
8 | CC1(C)C(=O)N(c2cnc(C#N)c(C(F)(F)F)c2)C(=S)N1c1ccc(OCC2CCN(CC(=O)Nc3cccc(NC4CCC(=O)NC4=O)c3)CC2)cc1 (stereo not shown) [Cmpd 6, 2-(4-((4-(3-(6-cyano-5-(trifluoromethyl)pyridin-3-yl)-5,5-dimethyl-4-oxo-2-thioxoimidazolidin-1-yl)phenoxy)methyl)piperidin-1-yl)-N-(3-(2,6-dioxopiperidin-3-ylamino)phenyl)acetamide] | ** (25%<Y<=35%) | 100 to 500 | –
9 | CC1(C)C(=O)N(c2cnc(C#N)c(C(F)(F)F)c2)C(=S)N1c1ccc(OCC2CCN(CC(=O)Nc3cccc(NC4CCC(=O)NC4=O)c3)CC2)c(Cl)c1 (stereo not shown) [Cmpd 7, 2-(4-((2-chloro-4-(3-(6-cyano-5-(trifluoromethyl)pyridin-3-yl)-5,5-dimethyl-4-oxo-2-thioxoimidazolidin-1-yl)phenoxy)methyl)piperidin-1-yl)-N-(3-(2,6-dioxopiperidin-3-ylamino)phenyl)acetamide] | ** (25%<Y<=35%) | 500 to 1000 | –
10 | CC1(C)C(=O)N(c2ccc(C#N)c(C(F)(F)F)c2)C(=S)N1c1ccc(OCCC2CCN(CC(=O)Nc3cc(Cl)cc(NC4CCC(=O)NC4=O)c3)CC2)c(Cl)c1 (stereo not shown) [Cmpd 8, 2-(4-(2-(2-chloro-4-(3-(4-cyano-3-(trifluoromethyl)phenyl)-5,5-dimethyl-4-oxo-2-thioxoimidazolidin-1-yl)phenoxy)ethyl)piperidin-1-yl)-N-(3-chloro-5-(2,6-dioxopiperidin-3-ylamino)phenyl)acetamide] | * (0<Y<=25%) | 100 to 500 | –
11 | CC1(C)C(=O)N(c2ccc(C#N)c(C(F)(F)F)c2)C(=S)N1c1ccc(OCC2CCN(CC(=O)Nc3cc(Cl)cc(NC4CCC(=O)NC4=O)c3)CC2)c(Cl)c1 (stereo not shown) [Cmpd 9, 2-(4-((2-chloro-4-(3-(4-cyano-3-(trifluoromethyl)phenyl)-5,5-dimethyl-4-oxo-2-thioxoimidazolidin-1-yl)phenoxy)methyl)piperidin-1-yl)-N-(3-chloro-5-(2,6-dioxopiperidin-3-ylamino)phenyl)acetamide] | *** (35%<Y<50%) | 500 to 1000 | –
12 | CC1(C)C(=O)N(c2ccc(C#N)c(C(F)(F)F)c2)C(=S)N1c1ccc(OCCC2CCN(CC(=O)Nc3cc(Cl)cc(NC4CCC(=O)NC4=O)c3)CC2)c(F)c1 (stereo not shown) [Cmpd 10, N-(3-chloro-5-(2,6-dioxopiperidin-3-ylamino)phenyl)-2-(4-(2-(4-(3-(4-cyano-3-(trifluoromethyl)phenyl)-5,5-dimethyl-4-oxo-2-thioxoimidazolidin-1-yl)-2-fluorophenoxy)ethyl)piperidin-1-yl)acetamide] | ** (25%<Y<=35%) | 100 to 500 | –
13 | CCc1cc(N2C(=S)N(c3ccc(C#N)c(C(F)(F)F)c3)C(=O)C2(C)C)ccc1OCC1CCN(CC(=O)Nc2cccc(NC3CCC(=O)NC3=O)c2)CC1 (stereo not shown) [Cmpd 11, 2-(4-((4-(3-(4-cyano-3-(trifluoromethyl)phenyl)-5,5-dimethyl-4-oxo-2-thioxoimidazolidin-1-yl)-2-ethylphenoxy)methyl)piperidin-1-yl)-N-(3-(2,6-dioxopiperidin-3-ylamino)phenyl)acetamide] | ** (25%<Y<=35%) | 100 to 500 | –
14 | CCc1cc(N2C(=S)N(c3cnc(C#N)c(C(F)(F)F)c3)C(=O)C2(C)C)ccc1OCCC1CCN(CC(=O)Nc2cccc(NC3CCC(=O)NC3=O)c2)CC1 (stereo not shown) [Cmpd 12, 2-(4-(2-(4-(3-(6-cyano-5-(trifluoromethyl)pyridin-3-yl)-5,5-dimethyl-4-oxo-2-thioxoimidazolidin-1-yl)-2-ethylphenoxy)ethyl)piperidin-1-yl)-N-(3-(2,6-dioxopiperidin-3-ylamino)phenyl)acetamide] | * (0<Y<=25%) | < 100 | –
